Test system: KG-1
Assay: cell viability (% survival relative to DMSO control, bortezomib = 0%); higher = less cytotoxic
Conditions: 100 nM; 72 h
In short: (§1)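 Percent survival figures are means of duplicate wells. They were obtained by CellTiter-Glo luminescence after 10 AML and 5 CML cell lines spent 72 h at 37 °C with 5% CO2 in 384-well plates with compounds at 1, 10, 100, 1000 or 10000 nM. Vehicle was set to 100% and a 10 µM positive control to 0%.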

| SMILES | cell viability [%] |
| --- | --- |
| CC(=O)N1CCN(c2ccc(OC[C@@H]3CO[C@@](Cn4ccnc4)(c4ccc(Cl)cc4Cl)O3)cc2)CC1 (racemic) [Ketoconazole] | 90.9 |
| CCC(CC#N)OC(=O)N[C@@H](C)c1cccc(NC(=O)Nc2ccc(-c3cnco3)c(OC)c2)c1 (stereo in doubt) [AVN-944] | 74.1 |
| OC[C@H]1OC(O)C[C@@H](O)[C@@H]1O (some centres undefined) [2-deoxyglucose] | 98.9 |
| O=C(C(=O)c1ccc(Br)cc1)c1ccc(Br)cc1 [4,4'-Dibromobenzil] | 101 |
| NS(=O)(=O)c1ccc(NC(=O)Cc2ccccc2)cc1 [4-(2-Phenylacetamido)Benzenesulfonamide] | 85.8 |
| NCc1ccc(S(N)(=O)=O)cc1 [4-Homosulfanilamide] | 97.7 |
| Oc1ncc(F)c(O)n1 [5-fluorouracil] | 85.8 |
| NCc1ccc(-c2cccnc2)s1 [(5-Pyrid-3-YLTHIEN-2-YL)METHYLAMINE] | 99.8 |
| CC(=O)N[C@@H](CS)C(=O)O [Acetylcysteine] | 101 |
| CCCCC/C=C\C/C=C\C/C=C\C/C=C\CCCC(=O)C(F)(F)F [Arachidonyl trifluoromethyl ketone] | 92.6 |
| O=[As]O[As]=O (centres undefined) [Arsenic trioxide] | 108 |

Same assay, conditions: 1000 nM; 72 h

| SMILES | cell viability [%] |
| --- | --- |
| CC(=O)N1CCN(c2ccc(OC[C@@H]3CO[C@@](Cn4ccnc4)(c4ccc(Cl)cc4Cl)O3)cc2)CC1 (racemic) [Ketoconazole] | 93.7 |
| CCC(CC#N)OC(=O)N[C@@H](C)c1cccc(NC(=O)Nc2ccc(-c3cnco3)c(OC)c2)c1 (stereo in doubt) [AVN-944] | 27 |
| OC[C@H]1OC(O)C[C@@H](O)[C@@H]1O (some centres undefined) [2-deoxyglucose] | 82.6 |
| O=C(C(=O)c1ccc(Br)cc1)c1ccc(Br)cc1 [4,4'-Dibromobenzil] | 100 |
| NS(=O)(=O)c1ccc(NC(=O)Cc2ccccc2)cc1 [4-(2-Phenylacetamido)Benzenesulfonamide] | 90 |
| NCc1ccc(S(N)(=O)=O)cc1 [4-Homosulfanilamide] | 99.1 |
| Oc1ncc(F)c(O)n1 [5-fluorouracil] | 83.5 |
| NCc1ccc(-c2cccnc2)s1 [(5-Pyrid-3-YLTHIEN-2-YL)METHYLAMINE] | 108 |
| CC(=O)N[C@@H](CS)C(=O)O [Acetylcysteine] | 88.9 |
| CCCCC/C=C\C/C=C\C/C=C\C/C=C\CCCC(=O)C(F)(F)F [Arachidonyl trifluoromethyl ketone] | 90 |
| O=[As]O[As]=O (centres undefined) [Arsenic trioxide] | 97 |

Same assay, conditions: 10000 nM; 72 h

| SMILES | cell viability [%] |
| --- | --- |
| CC(=O)N1CCN(c2ccc(OC[C@@H]3CO[C@@](Cn4ccnc4)(c4ccc(Cl)cc4Cl)O3)cc2)CC1 (racemic) [Ketoconazole] | 42.9 |
| CCC(CC#N)OC(=O)N[C@@H](C)c1cccc(NC(=O)Nc2ccc(-c3cnco3)c(OC)c2)c1 (stereo in doubt) [AVN-944] | 20.2 |
| OC[C@H]1OC(O)C[C@@H](O)[C@@H]1O (some centres undefined) [2-deoxyglucose] | 92.9 |
| O=C(C(=O)c1ccc(Br)cc1)c1ccc(Br)cc1 [4,4'-Dibromobenzil] | 91 |
| NS(=O)(=O)c1ccc(NC(=O)Cc2ccccc2)cc1 [4-(2-Phenylacetamido)Benzenesulfonamide] | 103 |
| NCc1ccc(S(N)(=O)=O)cc1 [4-Homosulfanilamide] | 96.6 |
| Oc1ncc(F)c(O)n1 [5-fluorouracil] | 46.2 |
| NCc1ccc(-c2cccnc2)s1 [(5-Pyrid-3-YLTHIEN-2-YL)METHYLAMINE] | 87.6 |
| CC(=O)N[C@@H](CS)C(=O)O [Acetylcysteine] | 101 |
| CCCCC/C=C\C/C=C\C/C=C\C/C=C\CCCC(=O)C(F)(F)F [Arachidonyl trifluoromethyl ketone] | 47.7 |
| O=[As]O[As]=O (centres undefined) [Arsenic trioxide] | 86.4 |

Test system: MOLM-13
Assay: as above
Conditions: 1 nM; 72 h
In short: as §1

| SMILES | cell viability [%] |
| --- | --- |
| CC(=O)N1CCN(c2ccc(OC[C@@H]3CO[C@@](Cn4ccnc4)(c4ccc(Cl)cc4Cl)O3)cc2)CC1 (racemic) [Ketoconazole] | 92.5 |
| CCC(CC#N)OC(=O)N[C@@H](C)c1cccc(NC(=O)Nc2ccc(-c3cnco3)c(OC)c2)c1 (stereo in doubt) [AVN-944] | 130 |
| OC[C@H]1OC(O)C[C@@H](O)[C@@H]1O (some centres undefined) [2-deoxyglucose] | 86.7 |
| O=C(C(=O)c1ccc(Br)cc1)c1ccc(Br)cc1 [4,4'-Dibromobenzil] | 87 |
| NS(=O)(=O)c1ccc(NC(=O)Cc2ccccc2)cc1 [4-(2-Phenylacetamido)Benzenesulfonamide] | 95.7 |
| NCc1ccc(S(N)(=O)=O)cc1 [4-Homosulfanilamide] | 80.7 |
| Oc1ncc(F)c(O)n1 [5-fluorouracil] | 128 |
| NCc1ccc(-c2cccnc2)s1 [(5-Pyrid-3-YLTHIEN-2-YL)METHYLAMINE] | 100 |
| CC(=O)N[C@@H](CS)C(=O)O [Acetylcysteine] | 107 |
| CCCCC/C=C\C/C=C\C/C=C\C/C=C\CCCC(=O)C(F)(F)F [Arachidonyl trifluoromethyl ketone] | 103 |
| O=[As]O[As]=O (centres undefined) [Arsenic trioxide] | 110 |

Same assay, conditions: 10 nM; 72 h

| SMILES | cell viability [%] |
| --- | --- |
| CC(=O)N1CCN(c2ccc(OC[C@@H]3CO[C@@](Cn4ccnc4)(c4ccc(Cl)cc4Cl)O3)cc2)CC1 (racemic) [Ketoconazole] | 110 |
| CCC(CC#N)OC(=O)N[C@@H](C)c1cccc(NC(=O)Nc2ccc(-c3cnco3)c(OC)c2)c1 (stereo in doubt) [AVN-944] | 121 |
| OC[C@H]1OC(O)C[C@@H](O)[C@@H]1O (some centres undefined) [2-deoxyglucose] | 108 |
| O=C(C(=O)c1ccc(Br)cc1)c1ccc(Br)cc1 [4,4'-Dibromobenzil] | 83.8 |
| NS(=O)(=O)c1ccc(NC(=O)Cc2ccccc2)cc1 [4-(2-Phenylacetamido)Benzenesulfonamide] | 99.9 |
| NCc1ccc(S(N)(=O)=O)cc1 [4-Homosulfanilamide] | 93.2 |
| Oc1ncc(F)c(O)n1 [5-fluorouracil] | 109 |
| NCc1ccc(-c2cccnc2)s1 [(5-Pyrid-3-YLTHIEN-2-YL)METHYLAMINE] | 102 |
| CC(=O)N[C@@H](CS)C(=O)O [Acetylcysteine] | 107 |
| CCCCC/C=C\C/C=C\C/C=C\C/C=C\CCCC(=O)C(F)(F)F [Arachidonyl trifluoromethyl ketone] | 74 |
| O=[As]O[As]=O (centres undefined) [Arsenic trioxide] | 104 |

Same assay, conditions: 100 nM; 72 h

| SMILES | cell viability [%] |
| --- | --- |
| CC(=O)N1CCN(c2ccc(OC[C@@H]3CO[C@@](Cn4ccnc4)(c4ccc(Cl)cc4Cl)O3)cc2)CC1 (racemic) [Ketoconazole] | 100 |
| CCC(CC#N)OC(=O)N[C@@H](C)c1cccc(NC(=O)Nc2ccc(-c3cnco3)c(OC)c2)c1 (stereo in doubt) [AVN-944] | 8.35 |
| OC[C@H]1OC(O)C[C@@H](O)[C@@H]1O (some centres undefined) [2-deoxyglucose] | 93 |
| O=C(C(=O)c1ccc(Br)cc1)c1ccc(Br)cc1 [4,4'-Dibromobenzil] | 80.4 |
| NS(=O)(=O)c1ccc(NC(=O)Cc2ccccc2)cc1 [4-(2-Phenylacetamido)Benzenesulfonamide] | 81 |
| NCc1ccc(S(N)(=O)=O)cc1 [4-Homosulfanilamide] | 87.3 |
| Oc1ncc(F)c(O)n1 [5-fluorouracil] | 82.2 |
| NCc1ccc(-c2cccnc2)s1 [(5-Pyrid-3-YLTHIEN-2-YL)METHYLAMINE] | 93.7 |
| CC(=O)N[C@@H](CS)C(=O)O [Acetylcysteine] | 81.8 |

Reference: the supplement of paper PMC8671470
